From patent US11371019B2, “Efficient generation of human red blood cells via enriching peripheral blood erythroid progenitors” (Whitehead Institute for Biomedical Research, priority 2016, dated 2022)

Experiments:
[1] = system: TGFBR3^lo mouse BFU-E cells; assay: colony forming assay for large BFU-E colony numbers; type: cell-based; conditions: culture system; FIG. 12
Method: FIG. 12. A chart showing an exemplary colony forming assays were conducted to determine large BFU-E colony numbers from 100 TGFBR3^lo mouse BFU-E cells cultured under the indicated conditions. Colony forming assays were performed at indicated time points.
(§1) For new drug discovery or drug repurposing for treating blood diseases, compounds of interest were added into cell culture after progenitor purification. The efficacy of drugs is evaluated based on total red blood cell production, numbers of erythroid progenitor BFU-E and CFU-E (quantified by colony forming assay) and/or level of fetal globin expression.

[2] = system: purified mouse TGFBR3^lo BFU-E cells; assay: total red cell production from purified BFU-E cells in SFELE medium; type: cell-based; conditions: culture system; FIG. 13
Method: FIG. 13. A chart showing the treatment of purified mouse TGFBR3^lo BFU-E cells with DMSO, DEX or TGFβ signaling inhibitor galunisertib. The cells were seeded in SFELE medium supplemented with the test agent.
as §1

Cc1cccc(-c2nn3c(c2-c2ccnc4ccc(C(N)=O)cc24)CCC3)n1 [galunisertib]
BFU-E numbers [1]: increase BFU-E numbers
total red cell production [2]: increase
